# From PubChem BioAssay (NCI)
#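 Dose response: 5 concentrations. Exposure: 48 h. Format: 96-well plates. Endpoint: linear interpolation; highest concentration if not reached. At the TGI there is no net growth.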
# Key:
# Assay in all cases: NCI-60 cell line screen, 48 h
# [1] = tested on: 786-0 renal
# [2] = tested on: A549 NSCLC
# [3] = tested on: ACHN renal
# [4] = tested on: CAKI-1 renal
# [5] = tested on: CCRF-CEM leukemia
# [6] = tested on: COLO 205 colon
# [7] = tested on: DLD-1 colon
# [8] = tested on: DMS 114 small cell lung
# [9] = tested on: DMS 273 small cell lung
# [10] = tested on: EKVX NSCLC
# [11] = tested on: HCT-15 colon
# [12] = tested on: HL-60(TB) leukemia
# [13] = tested on: HOP-18 NSCLC
# [14] = tested on: HOP-62 NSCLC
# [15] = tested on: HOP-92 NSCLC
# [16] = tested on: HT29 colon
# [17] = tested on: IGROV1 ovarian
# [18] = tested on: K-562 leukemia
# [19] = tested on: KM20L2 colon
# [20] = tested on: LOX IMVI melanoma
# [21] = tested on: M14 melanoma
# [22] = tested on: M19-MEL melanoma
# [23] = tested on: MALME-3M melanoma
# [24] = tested on: MOLT-4 leukemia
# [25] = tested on: NCI-H23 lung
# [26] = tested on: NCI-H460 lung
# [27] = tested on: OVCAR-3 ovarian
# [28] = tested on: OVCAR-4 ovarian
# [29] = tested on: OVCAR-8 ovarian
# [30] = tested on: RPMI-8226 leukemia
# [31] = tested on: RXF 393 renal
# [32] = tested on: RXF-631 renal
# [33] = tested on: SF-295 CNS
# [34] = tested on: SF-539 CNS
# [35] = tested on: SK-MEL-2 melanoma
# [36] = tested on: SK-MEL-28 melanoma
# [37] = tested on: SK-MEL-5 melanoma
# [38] = tested on: SK-OV-3 ovarian
# [39] = tested on: SN12C renal
# [40] = tested on: SNB-19 CNS
# [41] = tested on: SNB-75 CNS
# [42] = tested on: SNB-78 CNS
# [43] = tested on: SW-620 colon
# [44] = tested on: TK-10 renal
# [45] = tested on: U251 CNS
# [46] = tested on: UACC-257 melanoma
# [47] = tested on: UACC-62 melanoma
# [48] = tested on: UO-31 renal
# [49] = tested on: XF 498 CNS
# [50] = tested on: A498 renal
# [51] = tested on: BT-549 breast
# [52] = tested on: DU-145 prostate
# [53] = tested on: HCC-2998 colon
# [54] = tested on: HS 578T breast
# [55] = tested on: KM12 colon
# [56] = tested on: LXFL 529 NSCLC
# [57] = tested on: MCF7 breast
# [58] = tested on: MDA-MB-435
# [59] = tested on: MDA-N
# [60] = tested on: NCI-H226 lung
# [61] = tested on: NCI-H522 lung
# [62] = tested on: NCI/ADR-RES ovarian
# [63] = tested on: OVCAR-5 ovarian
# [64] = tested on: PC-3 prostate
# [65] = tested on: SF-268 CNS
# [66] = tested on: SR leukemia
smiles,measurement,setting,value
CC1OC(n2cc(Cl)c(=O)[nH]c2=O)C=C(OC(=O)c2ccccc2)C1=O (centres undefined),TGI,[1],> 100 µM
same,TGI,[2],> 100 µM
same,TGI,[3],> 100 µM
same,TGI,[4],> 100 µM
same,TGI,[5],> 100 µM
same,TGI,[6],> 100 µM
same,TGI,[7],> 100 µM
same,TGI,[8],> 100 µM
same,TGI,[9],> 100 µM
same,TGI,[10],> 100 µM
same,TGI,[11],> 100 µM
same,TGI,[12],> 100 µM
same,TGI,[13],> 100 µM
same,TGI,[14],> 100 µM
same,TGI,[15],> 100 µM
same,TGI,[16],> 100 µM
same,TGI,[17],> 100 µM
same,TGI,[18],> 100 µM
same,TGI,[19],> 100 µM
same,TGI,[20],> 100 µM
same,TGI,[21],> 100 µM
same,TGI,[22],> 100 µM
same,TGI,[23],> 100 µM
same,TGI,[24],> 100 µM
same,TGI,[25],> 100 µM
same,TGI,[26],> 100 µM
same,TGI,[27],> 100 µM
same,TGI,[28],> 100 µM
same,TGI,[29],> 100 µM
same,TGI,[30],> 100 µM
same,TGI,[31],> 100 µM
same,TGI,[32],> 100 µM
same,TGI,[33],> 100 µM
same,TGI,[34],> 100 µM
same,TGI,[35],> 100 µM
same,TGI,[36],> 100 µM
same,TGI,[37],> 100 µM
same,TGI,[38],> 100 µM
same,TGI,[39],> 100 µM
same,TGI,[40],> 100 µM
same,TGI,[41],> 100 µM
same,TGI,[42],> 100 µM
same,TGI,[43],> 100 µM
same,TGI,[44],> 100 µM
same,TGI,[45],> 100 µM
same,TGI,[46],> 100 µM
same,TGI,[47],> 100 µM
same,TGI,[48],> 100 µM
same,TGI,[49],> 100 µM
COc1ccc(/C=C2\CCC(CN3CCOCC3)C2=O)cc1 (centres undefined),TGI,[1],3.11 µM
same,TGI,[50],21.4 µM
same,TGI,[2],20.8 µM
same,TGI,[3],11.7 µM
same,TGI,[51],5.54 µM
same,TGI,[4],4.15 µM
same,TGI,[5],> 21.3 µM
same,TGI,[6],5.38 µM
same,TGI,[7],24.8 µM
same,TGI,[8],7.09 µM
same,TGI,[52],4.02 µM
same,TGI,[10],21.1 µM
same,TGI,[53],10.9 µM
same,TGI,[11],6.2 µM
same,TGI,[12],11.2 µM
same,TGI,[13],18.3 µM
same,TGI,[14],33.3 µM
same,TGI,[15],6.65 µM
same,TGI,[54],> 100 µM
same,TGI,[16],5.73 µM
same,TGI,[17],11.3 µM
same,TGI,[18],6.02 µM
same,TGI,[55],16.2 µM
same,TGI,[19],13.5 µM
same,TGI,[20],10.1 µM
same,TGI,[56],3.04 µM
same,TGI,[21],5.26 µM
same,TGI,[22],30.5 µM
same,TGI,[23],6.42 µM
same,TGI,[57],9.58 µM
same,TGI,[58],3.97 µM
same,TGI,[59],5.83 µM
same,TGI,[24],6.29 µM
same,TGI,[60],35.5 µM
same,TGI,[25],14.4 µM
same,TGI,[26],41.3 µM
same,TGI,[61],2390 nM
same,TGI,[62],5.23 µM
same,TGI,[27],9.36 µM
same,TGI,[28],24.1 µM
same,TGI,[63],19.5 µM
same,TGI,[29],7.35 µM
same,TGI,[64],11.7 µM
same,TGI,[30],3.57 µM
same,TGI,[31],3.12 µM
same,TGI,[32],43.5 µM
same,TGI,[65],16.4 µM
same,TGI,[33],32.1 µM
same,TGI,[34],13 µM
same,TGI,[35],9.66 µM
same,TGI,[36],7.71 µM
same,TGI,[37],12.7 µM
same,TGI,[38],30 µM
same,TGI,[39],12.3 µM
same,TGI,[40],26 µM
same,TGI,[41],30.5 µM
same,TGI,[42],27 µM
same,TGI,[66],5.97 µM
same,TGI,[43],3.86 µM
same,TGI,[44],9.64 µM
same,TGI,[45],31.2 µM
same,TGI,[46],5.94 µM
same,TGI,[47],24.5 µM
same,TGI,[48],15.3 µM
same,TGI,[49],9.69 µM
